{
  "source": "patent US11712436B2",
  "about": "“Theranostic test for antifungal treatment of inflammatory diseases” (Cornell University, priority 2017, dated 2023)",
  "key": {"[1]": {"system": "most Candida species and other dimorphic fungi", "settings": "when used during the onset of intestinal disease; cited from earlier work"}, "[2]": {"system": "intestinal fungi", "assay": "DSS colitis in ΔCX3CR1 mice with fungal targeting by fluconazole", "type": "in vivo", "settings": "3% DSS in drinking water, fluconazole 0.5 mg/ml in drinking water starting 4 days prior the first DSS dose, FIG. 3E-G", "method": "Cx3cr1^GFP/GFP, C57BL/6J, Cd11c-cre^+/+, Irf4^fl/fl, Cx3cr1^tm3(DTR)Litt/J (Cx3cr1^DTR), Syk^fl/fl, Cx3cr1^tm2.1(cre/ERT2)Jung/J (Cx3cr1-cre/ERT2^+/+), Batf3^−/−, Thy1.1, and OVA-specific CD4^+ (OT-II) T-cell receptor-transgenic (H-2^b) mice were purchased from the Jackson Laboratories (Bar Harbor, Me.). […]. For depletion, mice generated through such breeding (Cd11c-cre^+/− Cx3cr1^DTR mice) and the respective littermate controls (Cd11c-cre^−/− Cx3cr1^DTR) were injected for three consecutive days with 100 ng of DT i.p followed by maintenance injection every other day for the length of the experiments. Depleted mice were designated throughout the study as ΔCX3CR1 mice. Irf4^fl/fl mice were bred to hemizygous Cd11c-cre^+/− mice to allow for genetic ablation of CD11c^+ CD11b^+ CD103^+ dendritic cells (Cd11c-cre^+/− Irf4^fl/fl mice, designated throughout the study as ΔIrf4 mice) and the generation of littermate controls (Cd11c-cre^−/− Irf4^fl/fl mice). Syk^fl/fl mice were bred to Cx3cr1-cre/ERT2^+/+ to allow for the selective depletion of Syk in CX3CR1 expressing cells upon administration of tamoxifen. […]\nCx3cr1^DTR or littermate control mice were injected with DT for three consecutive days, prior to the induction of colitis with 3% (w/v) Dextran sulfate sodium (DSS, MP Biomedicals, LLC, Aurora, Ohio) in the drinking water. […] Body weight and the presence of occult blood were assessed daily. […]"}},
  "data": [
    {"smiles": "OC(Cn1cncn1)(Cn1cncn1)c1ccc(F)cc1F", "note": "[fluconazole]", "values": [
      {"measurement": "colitis in mice with defects in antifungal immunity", "setting": "[1]", "result": "ameliorates colitis"},
      {"measurement": "intestinal disease (DSS colitis: body weight change, neutrophil infiltration in colonic LP, H&E histology)", "setting": "[2]", "result": "significantly ameliorated intestinal disease"}
    ]}
  ]
}
